The conditions of data set [1]: substituent constant; ref Hansch et al. 1973; cited from earlier work.
Data set [2] has as its target human 5-HT2A. Details: method as in Nelson et al., 1999. Particulars: cloned human 5-HT2A vs [125I]DOI; ref Nelson et al., 1999; cited from earlier work.
For data set [3], the target named is T1, human 5-HT2B receptor (Homo sapiens, UniProt P41595).
T1 construct: host or cells: Flp-In T-REx 293 cells (HEK 293)
Nature of the data set: 5-HT2B receptor functional activity (agonist) using Ca2+ mobilization assay in Flp-In T-REx 293 cells. The data set is classed as cell-based. Particulars: for Emax: Flp-In-T-REx-293, read-out: Maximal 5-HT effect; for Maximal 5-HT effect: maximal effect relative to 5-HT = 100%; for agonist effect at 5-HT2B receptors: highest concentration examined (10,000 nM). In general terms: Calcium flux is commonly read through the fluorescence of an indicator in the cells.

The target of data set [4] is human 5-HT2B. The arrangement: method as in Nelson et al., 1999. As to conditions: human 5-HT2B vs [3H]5-HT; ref Nelson et al., 1999; cited from earlier work.
Data set [5] concerns the target rat 5-HT2. Details: method as in Seggel et al., 1990. As to conditions: rat brain 5-HT2 vs [3H]ketanserin; ref Seggel et al., 1990; cited from earlier work.
For data set [6], the system named is human 5-HT2B receptors. The arrangement: method as in Porter et al. (1999). Particulars: CHO cells, intracellular calcium; ref Porter et al. (1999); cited from earlier work.
Data set [7] has as its system 5-HT2B receptor. The arrangement: method as in Huang et al. (2009). Particulars: multiple functional assays; ref Huang et al. (2009); cited from earlier work.
Data set [8] has as its target T1, human 5-HT2B receptor. The experiment in a line: 5-HT2B receptor antagonism of 10 nM 5-HT Ca2+ signal in Flp-In T-REx 293 cells. The data set is classed as cell-based. Here is the method:
A stable cell line was generated expressing the human 5-HT2B receptor using the Flp-In T-REx system (Thermo Fisher) ([Younkin et al., 2016]; [Steele et al., 2021]). Briefly, 5-HT2B receptor coding plasmid was obtained from cDNA Resource Center (cat # HTR02B0000). The 5-HT2B receptor cDNA was subcloned into the pcDNA/FRT/TO expression plasmid, and was co-transfected with pOG44 plasmid (coding the Flp recombinase) in Flp-In T-REx 293 cells. Cells were selected using 100 μg/mL of hygromycin and resistant cells were expanded and stored in liquid N2 for later use. For experimentation, stable cell lines were plated in Matrigel-coated 96-well imaging plates in Dulbecco’s Modified Eagle Medium (DMEM) containing 10% fetal bovine serum (FBS) and 5% penicillin/streptomycin, and the medium was supplemented with doxycycline (1 μg/mL) to upregulate the expression of the receptor 3 days before the experiment. Then, cells were loaded with Fura 2-AM for 30 min in Ca^2+ imaging solution (IS) consistent of 130 NaCl, 4 KCl, 2 CaCl2, 1 MgCl2, 10 HEPES, 10 glucose (in mM, pH adjusted to 7.4). […] Three wells containing cells were analyzed for each concentration per experiment day. […] All data were processed used Fiji software by ImageJ2 which allowed manual selection of cells and measurement of fluorescence. […]

The subject of data set [9] is rat 5-HT2A. The arrangement: method as in Seggel et al., 1990; Glennon 2017. Particulars: ref Seggel et al., 1990; Glennon 2017; cited from earlier work.
Setting [10] is: agonist potency, Ca2+ mobilization, Hill slope 1.0.
Setting [11] is: agonist potency, Ca2+ mobilization, Hill slope 1.0, read-out: h5-HT2B EC50.

Results on 15 compounds are retold here after article PMC9902381, “Binding and functional structure-activity similarities of 4-substituted 2,5-dimethoxyphenyl isopropylamine analogues at 5-HT2A and 5-HT2B serotonin receptors” (Frontiers in Pharmacology, 2023).

Like-named read-outs stand apart in the source and are kept apart here.

Usually EC50 stands for the concentration that produces a half-maximal response.

T1 sequence (P41595 whole entry): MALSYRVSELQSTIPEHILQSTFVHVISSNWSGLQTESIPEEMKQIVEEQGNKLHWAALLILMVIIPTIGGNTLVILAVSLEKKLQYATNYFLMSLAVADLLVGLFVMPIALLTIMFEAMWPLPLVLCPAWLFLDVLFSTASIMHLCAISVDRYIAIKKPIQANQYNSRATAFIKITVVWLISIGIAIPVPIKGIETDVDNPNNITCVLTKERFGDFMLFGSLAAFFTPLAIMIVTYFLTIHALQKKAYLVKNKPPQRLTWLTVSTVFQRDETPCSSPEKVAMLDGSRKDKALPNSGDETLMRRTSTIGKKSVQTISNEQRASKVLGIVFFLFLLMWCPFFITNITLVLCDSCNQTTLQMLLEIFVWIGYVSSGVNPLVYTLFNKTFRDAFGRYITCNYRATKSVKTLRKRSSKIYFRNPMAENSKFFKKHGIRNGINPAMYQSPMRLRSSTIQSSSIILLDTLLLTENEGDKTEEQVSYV

Regarding `COc1cc(C(C)(C)C)c(OC)cc1CC(C)N` (stereo not shown) [1l], in [1], the “π (lipophilic character of 4-position substituent)” value was 1.98 and the “σp (electronic character of 4-position substituent)” value is on record as -0.20. In addition, the “h5-HT2A pKi” value in data set [2] is 8.43. Moreover, in data set [3], the EC50 is 0.0372 µM and the Emax worked out at 69%. Moreover, the “h5-HT2B pKi” value in data set [4] is on record as 7.61. In addition, the “r5-HT2 pKi” value in [5] is reported as 7.72.
Consider `CCCc1cc(OC)c(CC(C)N)cc1OC` (stereo not shown) [1j], for which, in data set [1], the “π (lipophilic character of 4-position substituent)” value is recorded as 1.55 and the “σp (electronic character of 4-position substituent)” value is reported as -0.13. The “h5-HT2A pKi” value in data set [2] is recorded as 9.05. Further, in [3], the EC50 is 0.055 µM and the “Maximal 5-HT effect” value stood at 75%. Further, in data set [5], the “r5-HT2 pKi” value is recorded as 7.16.
`COc1ccc(OC)c(CC(C)N)c1` (stereo not shown) [1a, 1-(2,5-dimethoxyphenyl)isopropylamine]: the “σp (electronic character of 4-position substituent)” value in data set [1] is 0. Besides, the “h5-HT2A pKi” value in [2] is recorded as 6.68. In [3], a half-maximal effect (EC50) was put at 3.39 µM and the Emax worked out at 93%. Besides, in data set [4], the “h5-HT2B pKi” value is given as 5.98. Moreover, the “r5-HT2 pKi” value in [5] is 5.28.
Consider `COc1cc(OC)c(OC)cc1CC(C)N` (stereo not shown) [1f], for which, in data set [1], the “π (lipophilic character of 4-position substituent)” value was -0.02 and the “σp (electronic character of 4-position substituent)” value is on record as -0.27. Also, in [2], the “h5-HT2A pKi” value is reported as 7.24. In addition, the “h5-HT2B pKi” value in data set [4] is 6.51. In [5], the “r5-HT2 pKi” value is listed as 5.90.
With `CCOc1cc(OC)c(CC(C)N)cc1OC` (stereo not shown) [1g], in [1], the “π (lipophilic character of 4-position substituent)” value was 0.38 and the “σp (electronic character of 4-position substituent)” value was -0.24. In addition, in data set [2], the “h5-HT2A pKi” value is 7.14. Also, in data set [3], the response was half-maximal at 0.557 µM (EC50) and the Emax amounted to 70%. Also, the “h5-HT2B pKi” value in data set [4] is reported as 6.12. The “r5-HT2 pKi” value in data set [5] is 5.66.
Take `COc1ccc(OC)c(C[C@@H](C)N)c1` (single isomer, unassigned) [R (−) enantiomer]: in [3] (setting [10]), the “h5-HT2B pEC50 ± SEM” value was found to be 5.49 ± 0.16. In [3] (setting [11]), the EC50 was 3.24 µM. In addition, in [3], the “Maximal 5-HT effect” value is listed as 87%.
`COc1cc(CC(C)N)c(OC)cc1I` (stereo not shown) [1e]: in data set [1], the “π (lipophilic character of 4-position substituent)” value is 1.12 and the “σp (electronic character of 4-position substituent)” value was 0.18. Moreover, in data set [3], the EC50 was 0.0372 µM and the “Maximal 5-HT effect” value worked out at 71%. For the same compound, the “h5-HT2B pKi” value in data set [4] is recorded as 7.70. Also, the “% of the effect of 5-HT at human 5-HT2B” value in [6] was 65%. Moreover, the “r5-HT2 pKi” value in [5] was 7.72. Besides, the “5-HT2B receptor agonist action” value in data set [7] is reported as “potent 5-HT2B receptor agonist”.
Turning to `COc1cc(CC(C)N)c(OC)cc1F` (stereo not shown) [1b], in data set [1], the “π (lipophilic character of 4-position substituent)” value is 0.14 and the “σp (electronic character of 4-position substituent)” value is 0.06. Further, the “h5-HT2A pKi” value in [2] is listed as 7.38. In addition, in data set [3], the midpoint of the response, the EC50, lay at 0.439 µM and the Emax came to 82%. Further, the “h5-HT2B pKi” value in data set [4] is reported as 6.64. Moreover, the “r5-HT2 pKi” value in [5] was 5.96.
Take `CCCCCCc1cc(OC)c(CC(C)N)cc1OC` (stereo not shown) [1k]: in data set [1], the “π (lipophilic character of 4-position substituent)” value is recorded as 3.05 and the “σp (electronic character of 4-position substituent)” value was -0.13. Also, the “h5-HT2A pKi” value in data set [2] is on record as 10.00. Moreover, in data set [3], the EC50 is above 10 µM, the “agonist effect at 5-HT2B receptors” value was “failed to produce an agonist effect” and the “Maximal 5-HT effect” value is given as 0%. The “h5-HT2B pKi” value in [4] was 7.52. Further, the “r5-HT2 pKi” value in [5] is 8.60. The “action on the 5-HT-mediated response at 5-HT2B” value in data set [8] is “behaved as antagonists”. Besides, the “rat 5-HT2A functional action” value in data set [9] was “lack rat 5-HT2A agonist action and behave as antagonists”.
Take `COc1cc([N+](=O)[O-])c(OC)cc1CC(C)N` (stereo not shown) [1h]: in data set [1], the “π (lipophilic character of 4-position substituent)” value is recorded as -0.28 and the “σp (electronic character of 4-position substituent)” value is recorded as 0.78. Besides, the “h5-HT2A pKi” value in data set [2] was 8.26. Further, in data set [3], it took 0.089 µM to reach a half-maximal effect (EC50) and the Emax was determined as 77%. Also, in data set [4], the “h5-HT2B pKi” value is on record as 6.78. Besides, in [5], the “r5-HT2 pKi” value is listed as 6.52.
On to `COc1cc(CC(C)N)c(OC)cc1C#N` (stereo not shown) [1i], for which, in data set [1], the “π (lipophilic character of 4-position substituent)” value was -0.57 and the “σp (electronic character of 4-position substituent)” value is on record as 0.66. Besides, the “h5-HT2A pKi” value in data set [2] is 7.34. Also, in data set [4], the “h5-HT2B pKi” value was 6.11. Moreover, the “r5-HT2 pKi” value in [5] is 5.62.
On to `COc1ccc(OC)c(C[C@H](C)N)c1` [S (+)1a], for which the “h5-HT2B pEC50 ± SEM” value in data set [3] (setting [10]) is on record as 6.32 ± 0.15. In [3] (setting [11]), the EC50 was determined as 0.48 µM. Besides, the “Maximal 5-HT effect” value in data set [3] is listed as 100%. Moreover, the “potency relative to R (−) enantiomer at 5-HT2B” value in [3] (optical isomers of 2,5-DMA) was “about six times more potent”.
Regarding `COc1cc(CC(C)N)c(OC)cc1Cl` (stereo not shown) [1c], in [1], the “π (lipophilic character of 4-position substituent)” value is 0.71 and the “σp (electronic character of 4-position substituent)” value is given as 0.23. Also, in [2], the “h5-HT2A pKi” value is 8.85. Further, the “h5-HT2B pKi” value in data set [4] is on record as 7.50. In addition, the “r5-HT2 pKi” value in data set [5] is 6.66.
As for `COc1cc(CC(C)N)c(OC)cc1Br` (stereo not shown) [1d], in [1], the “π (lipophilic character of 4-position substituent)” value is on record as 0.86 and the “σp (electronic character of 4-position substituent)” value is recorded as 0.23. In addition, the “h5-HT2A pKi” value in data set [2] is on record as 9.22. Also, in data set [3], the midpoint of the response, the EC50, lay at 0.0087 µM and the Emax was determined as 70%. For the same compound, in [4], the “h5-HT2B pKi” value is listed as 7.53. In data set [6], the “% of the effect of 5-HT at human 5-HT2B” value is given as 69%.
Take `COc1cc(CC(C)N)c(OC)cc1Cc1ccccc1` (stereo not shown) [1m]: in data set [1], the “π (lipophilic character of 4-position substituent)” value was 2.01 and the “σp (electronic character of 4-position substituent)” value is listed as -0.09. Besides, the “h5-HT2A pKi” value in [2] is 9.40. Also, in data set [3], the EC50 was above 10 µM, the Emax was found to be 0% and the “agonist effect at 5-HT2B receptors” value was “failed to produce an agonist effect”. Also, the “h5-HT2B pKi” value in [4] is listed as 7.64. Further, the “r5-HT2 pKi” value in [5] is 8.15. In addition, in [8], the “action on the 5-HT-mediated response at 5-HT2B” value is “behaved as antagonists”. In addition, the “rat 5-HT2A functional action” value in data set [9] was “lack rat 5-HT2A agonist action and behave as antagonists”.
